The supplement of paper PMC6004109

Assays:
Conditions in all cases: temperature: 37 °C
[1] = system: Candida glabrata ZIM 2369 (RPMI); test: FICI minimum (fractional inhibitory concentration index, Loewe) (dimensionless); higher = less synergy / more antagonism
Procedure: (§1)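 CLSI M27-A3 checkerboard broth microdilution of an immunomodulatory drug (or amoxicillin) combined with an antifungal against S. cerevisiae and C. glabrata isolates. Growth was read as OD600 after incubation at 37 °C (48 h for the reported MICs). Reported quantities are the FICI (Loewe: MIC50 for azoles and immunomodulators, MIC90 for AMB; ≤0.5 synergy, ≥4 antagonism), as minimum and maximum over the surface, and the Bliss-independence sum of statistically significant ΔE (positive = synergy). Clinical isolates were tested in RPMI; C. glabrata ATCC 2001 and its pdr1Δ mutant were tested in YPD.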

[2] = system: Saccharomyces cerevisiae ZIM 2247 (RPMI); test: as above
Procedure: as §1

[3] = system: Saccharomyces cerevisiae ZIM 2558 (RPMI); test: as above
Procedure: as §1

[4] = system: Candida glabrata ZIM 2389 (RPMI); test: as above
Procedure: as §1

[5] = system: Candida glabrata ZIM 2382 (RPMI); test: as above
Procedure: as §1

[6] = system: Candida glabrata ZIM 2344 (RPMI); test: as above
Procedure: as §1

[7] = system: Saccharomyces cerevisiae ZIM 2260 (RPMI); test: as above
Procedure: as §1

[8] = system: Saccharomyces cerevisiae ZIM 2269 (RPMI); test: as above
Procedure: as §1

[9] = system: Saccharomyces cerevisiae ZIM 2566 (RPMI); test: as above
Procedure: as §1

[10] = system: Candida glabrata ZIM 2385 (RPMI); test: as above
Procedure: as §1

[11] = system: Saccharomyces cerevisiae ZIM 2255 (RPMI); test: as above
Procedure: as §1

[12] = system: Candida glabrata ZIM 2365 (RPMI); test: as above
Procedure: as §1

[13] = system: Candida glabrata ZIM 2369 (RPMI); test: FICI maximum (fractional inhibitory concentration index, Loewe) (dimensionless); higher = less synergy / more antagonism
Procedure: as §1

[14] = system: Saccharomyces cerevisiae ZIM 2247 (RPMI); test: as above
Procedure: as §1

[15] = system: Saccharomyces cerevisiae ZIM 2558 (RPMI); test: as above
Procedure: as §1

[16] = system: Candida glabrata ZIM 2389 (RPMI); test: as above
Procedure: as §1

[17] = system: Candida glabrata ZIM 2382 (RPMI); test: as above
Procedure: as §1

[18] = system: Candida glabrata ZIM 2344 (RPMI); test: as above
Procedure: as §1

[19] = system: Saccharomyces cerevisiae ZIM 2260 (RPMI); test: as above
Procedure: as §1

[20] = system: Saccharomyces cerevisiae ZIM 2269 (RPMI); test: as above
Procedure: as §1

[21] = system: Saccharomyces cerevisiae ZIM 2566 (RPMI); test: as above
Procedure: as §1

[22] = system: Candida glabrata ZIM 2385 (RPMI); test: as above
Procedure: as §1

[23] = system: Saccharomyces cerevisiae ZIM 2255 (RPMI); test: as above
Procedure: as §1

[24] = system: Candida glabrata ZIM 2365 (RPMI); test: as above
Procedure: as §1

[25] = system: Candida glabrata ZIM 2369 (RPMI); test: Bliss independence sum of statistically significant ΔE (measured minus predicted growth inhibition) over checkerboard surface (fraction (sum of ΔE; 1 = 100%)); higher = more synergy
[26] = system: Saccharomyces cerevisiae ZIM 2566 (RPMI); test: as above
[27] = system: Saccharomyces cerevisiae ZIM 2255 (RPMI); test: as above
[28] = system: Candida glabrata ZIM 2365 (RPMI); test: as above

COc1c(C)c2c(c(O)c1C/C=C(\C)CCC(=O)O)C(=O)OC2 [mycophenolic acid] + C[C@@H]1[C@H](O)[C@@H](C)/C=C/C=C/C=C/C=C/C=C/C=C/C=C/[C@H](O[C@@H]2O[C@H](C)[C@@H](O)[C@H](N)[C@@H]2O)C[C@@H]2O[C@](O)(C[C@@H](O)C[C@@H](O)[C@H](O)CC[C@@H](O)C[C@@H](O)CC(=O)O[C@H]1C)C[C@H](O)[C@H]2C(=O)O [amphotericin B]
FICI minimum [1]: 0.75 | FICI minimum [2]: 0.767 | FICI minimum [3]: 0.375 | FICI minimum [4]: 0.531 | FICI minimum [5]: 0.5 | FICI minimum [6]: 0.625 | FICI minimum [7]: 0.58 | FICI minimum [8]: 1.03 | FICI minimum [9]: 0.633 | FICI minimum [10]: 0.5 | FICI minimum [11]: 1 | FICI minimum [12]: 0.5 | FICI maximum [13]: 1.12 | FICI maximum [14]: 1.53 | FICI maximum [15]: 1.03 | FICI maximum [16]: 1.01 | FICI maximum [17]: 1.06 | FICI maximum [18]: 1.06 | FICI maximum [19]: 1.04 | FICI maximum [20]: 1.25 | FICI maximum [21]: 1.07 | FICI maximum [22]: 1.06 | FICI maximum [23]: 1.25 | FICI maximum [24]: 1.02 | Bliss independence sum [25]: 0.709 | Bliss independence sum [26]: -0.484 | Bliss independence sum [27]: -0.43 | Bliss independence sum [28]: 6.59

COc1c(C)c2c(c(O)c1C/C=C(\C)CCC(=O)O)C(=O)OC2 [mycophenolic acid] + OC(Cn1cncn1)(Cn1cncn1)c1ccc(F)cc1F [fluconazole]
FICI minimum [1]: 1.01 | FICI minimum [2]: 2.02 | FICI minimum [3]: 1.01 | FICI minimum [4]: 1.01 | FICI minimum [5]: 1.01 | FICI minimum [6]: 1.01 | FICI minimum [7]: 0.66 | FICI minimum [8]: 1.01 | FICI minimum [9]: 1.01 | FICI minimum [10]: 0.508 | FICI minimum [11]: 2.5 | FICI minimum [12]: 1.02 | FICI maximum [13]: 4.25 | FICI maximum [14]: 2.53 | FICI maximum [15]: 4.25 | FICI maximum [16]: 2.25 | FICI maximum [17]: 4.25 | FICI maximum [18]: 1.25 | FICI maximum [19]: 2.02 | FICI maximum [20]: 2.25 | FICI maximum [21]: 2.27 | FICI maximum [22]: 2.25 | FICI maximum [23]: 2.02 | FICI maximum [24]: 8.5 | Bliss independence sum [25]: -2.4 | Bliss independence sum [26]: -0.316 | Bliss independence sum [27]: -3.66 | Bliss independence sum [28]: -4.84

C=CC[C@@H]1/C=C(\C)C[C@H](C)C[C@H](OC)[C@H]2O[C@@](O)(C(=O)C(=O)N3CCCC[C@H]3C(=O)O[C@H](/C(C)=C/[C@@H]3CC[C@@H](O)[C@H](OC)C3)[C@H](C)[C@@H](O)CC1=O)[C@H](C)C[C@@H]2OC [tacrolimus] + CCC(C)n1ncn(-c2ccc(N3CCN(c4ccc(OCC5COC(Cn6cncn6)(c6ccc(Cl)cc6Cl)O5)cc4)CC3)cc2)c1=O [itraconazole]
FICI minimum [1]: 0.25 | FICI minimum [2]: 0.501 | FICI minimum [3]: 0.25 | FICI minimum [4]: 0.126 | FICI minimum [5]: 1 | FICI minimum [6]: 0.125 | FICI minimum [7]: 0.251 | FICI minimum [8]: 0.75 | FICI minimum [9]: 0.13 | FICI minimum [10]: 0.0725 | FICI minimum [11]: 0.254 | FICI minimum [12]: 0.5 | FICI maximum [13]: 0.5 | FICI maximum [14]: 0.52 | FICI maximum [15]: 0.51 | FICI maximum [16]: 0.126 | FICI maximum [17]: 1 | FICI maximum [18]: 0.5 | FICI maximum [19]: 0.5 | FICI maximum [20]: 2.5 | FICI maximum [21]: 1 | FICI maximum [22]: 0.5 | FICI maximum [23]: 0.502 | FICI maximum [24]: 1.01 | Bliss independence sum [25]: 3.73 | Bliss independence sum [26]: 9.53 | Bliss independence sum [27]: 7.07 | Bliss independence sum [28]: 2.36

C=CC[C@@H]1/C=C(\C)C[C@H](C)C[C@H](OC)[C@H]2O[C@@](O)(C(=O)C(=O)N3CCCC[C@H]3C(=O)O[C@H](/C(C)=C/[C@@H]3CC[C@@H](O)[C@H](OC)C3)[C@H](C)[C@@H](O)CC1=O)[C@H](C)C[C@@H]2OC [tacrolimus] + C[C@@H]1[C@H](O)[C@@H](C)/C=C/C=C/C=C/C=C/C=C/C=C/C=C/[C@H](O[C@@H]2O[C@H](C)[C@@H](O)[C@H](N)[C@@H]2O)C[C@@H]2O[C@](O)(C[C@@H](O)C[C@@H](O)[C@H](O)CC[C@@H](O)C[C@@H](O)CC(=O)O[C@H]1C)C[C@H](O)[C@H]2C(=O)O [amphotericin B]
FICI minimum [1]: 0.258 | FICI minimum [2]: 0.0638 | FICI minimum [3]: 0.252 | FICI minimum [4]: 0.26 | FICI minimum [5]: 0.251 | FICI minimum [6]: 0.516 | FICI minimum [7]: 0.251 | FICI minimum [8]: 0.0825 | FICI minimum [9]: 0.25 | FICI minimum [10]: 0.281 | FICI minimum [11]: 0.0938 | FICI minimum [12]: 0.25 | FICI maximum [13]: 1.25 | FICI maximum [14]: 0.126 | FICI maximum [15]: 0.501 | FICI maximum [16]: 1 | FICI maximum [17]: 1.01 | FICI maximum [18]: 1 | FICI maximum [19]: 0.5 | FICI maximum [20]: 0.501 | FICI maximum [21]: 0.625 | FICI maximum [22]: 1 | FICI maximum [23]: 0.508 | FICI maximum [24]: 0.51 | Bliss independence sum [25]: 4.67 | Bliss independence sum [26]: 8.22 | Bliss independence sum [27]: 11.4 | Bliss independence sum [28]: 2.51

C=CC[C@@H]1/C=C(\C)C[C@H](C)C[C@H](OC)[C@H]2O[C@@](O)(C(=O)C(=O)N3CCCC[C@H]3C(=O)O[C@H](/C(C)=C/[C@@H]3CC[C@@H](O)[C@H](OC)C3)[C@H](C)[C@@H](O)CC1=O)[C@H](C)C[C@@H]2OC [tacrolimus] + OC(Cn1cncn1)(Cn1cncn1)c1ccc(F)cc1F [fluconazole]
FICI minimum [1]: 0.5 | FICI minimum [2]: 0.126 | FICI minimum [3]: 0.135 | FICI minimum [4]: 0.253 | FICI minimum [5]: 0.5 | FICI minimum [6]: 0.25 | FICI minimum [7]: 0.135 | FICI minimum [8]: 0.255 | FICI minimum [9]: 0.135 | FICI minimum [10]: 1 | FICI minimum [11]: 0.156 | FICI minimum [12]: 1 | FICI maximum [13]: 1 | FICI maximum [14]: 1 | FICI maximum [15]: 1 | FICI maximum [16]: 1 | FICI maximum [17]: 0.5 | FICI maximum [18]: 0.5 | FICI maximum [19]: 1 | FICI maximum [20]: 1 | FICI maximum [21]: 1 | FICI maximum [22]: 1.01 | FICI maximum [23]: 1 | FICI maximum [24]: 1 | Bliss independence sum [25]: 1.98 | Bliss independence sum [26]: 0.935 | Bliss independence sum [27]: 2.75 | Bliss independence sum [28]: 2.21
